Reference: patent US20110275637A1, “PIPERAZINE DERIVATIVES AND THEIR USE AS LEPTIN RECEPTOR MODULATORS” (priority 2008, published 2011)

Key:
JEG-3 cells [1] = test: JEG-3 protocol: [3H]-thymidine incorporation / proliferation (leptin assay in non-recombinant system); assay type: cell-based; details: FIG. 6
Source text: Leptin Assay in Non-Recombinant System
It seems that overexpression of the receptor (as well as the possibility for different drugs to act on different parts of the signaling pathway triggered by leptin association with its receptor) results in most cases in the absence of activity of the drugs tested.
The leptin receptor expression in non-recombinant system is often fluctuating and care must be given to identify a system where signal stability remains within experiments. Using such a system, leptin receptor antagonist mimetics could be identified by evaluating is their action vs. leptin (see below).
Leptin is produced chiefly in adipose cells, but in humans, mRNA encoding leptin is also present in the placenta. Here, leptin might play an important proliferative role in the microvasculature. The possibility to use this hypothesis in a native cell line was evaluated.
In JEG-3 cells (choriocarcinoma cell line) leptin is able to stimulate proliferation up to 3 fold (Biol. Reprod. (2007) 76: 203-10). […] The radioactivity incorporated by the cells is an index of their proliferative activity and is measured in counts per minute (CPM) with a liquid scintillation beta counter. […]

JEG-3 cells [2] = details: Biol. Reprod. (2007) 76: 203-10; cited from earlier work

Which EC50 (JEG-3 cells [1]; JEG-3 cells (choriocarcinoma cell line), read-out: EC50, concentration-dependent increase in [3H]-thymidine incorporation) does the source give for “Leptin: a hormone synthesized in fat cells that is believed to act in the hypothalamus to reduce food intake and body weight” here?
The EC50 was 2.1 nM.

And the “concentration of maximal effect on [3H]-thymidine incorporation” value (JEG-3 cells [1]; JEG-3 cells)?
The value was 100 nM.

What about the stimulation of proliferation (JEG-3 cells [2]) of the same substance?
The stimulation of proliferation was “up to 3 fold”.
